Measurements published in patent US20250319206A1, “CRISPR/CAS GENE EDITING OF NEH4 AND/OR NEH5 DOMAINS IN NRF2” (Christina Care Gene Editing Institute, Inc., priority 2024, published 2025).

Key:
Panc-1 cells = experiment: Cell viability with gemcitabine, CellTiter-Glo 2.0, Panc-1 cells; type: cell-based, Human; conditions: naïve (unedited) Panc-1 cells, 72 hours
Procedure: Wildtype and transfected Panc-1 cells were plated to 24 well plates (n=5) at 50,000 cells per well and placed in incubator for 24 hours. The cells were then treated with either Gemcitabine (Selleckchem, Cat. S1714) or DMSO (Thermo Fisher, Cat. D12345). Cells treated with Gemcitabine were treated at one of the following concentrations: 0 μM, 2.5 μM, 5 μM, 25 μM while cells treated with DMSO were treated at: 0%, 0.025%, 0.05%, or 0.25%. Cells remained in Gemcitabine or DMSO for 72 hours before being evaluated using CellTiter-Glo 2.0 Cell Viability Assay (Promega, Cat. G9241).
Since our long-term objective is to develop an effective genetic treatment that would augment standard care, we decided to examine the possibility that we could restore sensitivity to gemcitabine by genetic editing of NRF2 in gemcitabine resistant Panc1 cells. We are using gemcitabine as a selection system to determine if gene editing at some level, can help restore tumor cell killing. We established the kill curve of Panc1 unedited cells by gemcitabine under our standard reaction conditions to serve as a baseline. […] Again, after 72 hours, each cell population was exposed to gemcitabine for an additional 72 hours and thereafter cell viability of the treated and untreated cells was measured using the Cell Titer 2.0 viability assay (Promega, Madison, WI, USA). […]

NRF2 = NRF2 western blot in Panc-1 cells; type: cell-based, Human; conditions: edited Panc-1 populations vs unedited, GAPDH loading control
Procedure: Panc-1 cell pellets were collected using a standard RIPA lysis buffer containing protease inhibitor cocktail. Total protein concentration of collected cells was then determined using BCA Protein Assay kit (Pierce, Rockford, IL, USA). The samples were boiled at 95° C. for 10 minutes and then underwent SDS-PAGE on a 10% Mini-PROTEAN TGX Stain-free Protein Gel (BioRad, Cat. 4568033) for 90 min at 100 V. The gel was then transferred to a nitrocellulose membrane using Trans-Blot Turbo Transfer Systems (BioRad, Hercules, CA, USA) with Trans-Blot Turbo RTA Mini 0.2 μm Nitrocellulose Transfer Kit (BioRad Cat. 1704158), mixed molecular weight program, 10 minutes. The blot was placed in 5% milk and blocked at room temperature on shaker for 2 hours. Incubation in primary NRF2 antibody was done overnight at 4° C. on shaker (1:1,000, Abcam ab62352). Membrane was then incubated at room temperature on shaker for 1 hour in NRF2 secondary (1:10,000, Abcam ab205718). The SuperSignal West Dura Extended Duration ECL (Pierce) kit was used on the LI-COR Odyssey FC to visualize bands. […]

Compound	concentration of drug to achieve 75% killing (Panc-1 cells) [µM]	NRF2 protein knock down (NRF2)
Nc1ccn([C@@H]2O[C@H](CO)[C@@H](O)C2(F)F)c(=O)n1 [gemcitabine, reference compound]	~100	
sg5: gRNA targeting exon 3 of NRF2; CCTCATTGTCATCTACAAAC GGG (guide CCTCATTGTCATCTACAAACGGG; listed as DNA, chemistry not given here)		significant knockdown of protein
